Test results: patent US20090220612A1, “HOLLOW-FIBRE-BASED BIOCOMPATIBLE DRUG DELIVERY DEVICE WITH ONE OR MORE LAYERS” (priority 2005, published 2009)

Assay: Polymer degradation and in vitro 5-FU release from hollow fibres in PBS pH 7.4
Format: physicochemical
Details: FIG. 30
Method: 0.07 g of each hollow fibre was weighed and immersed in 20 ml of de-ionised water in a screw-topped bottle. These were then placed on an orbital shaker maintained at a temperature of 37° C. The pH of the degradation medium was measured every two days to monitor the rate of generation of acidic byproducts. A Jenway (Model 3051) pH meter was used for this purpose.
In vitro drug release studies were carried out in phosphate buffer saline (PBS) at both room temperature (˜25° C.) and 37° C. PBS solution was applied to keep the degrading system at a constant pH 7.4 value. Every type of polymer fibre was cut into 10 pieces, with 5 cm each. At room temperature, each fibre piece was first sealed at one end with bio-adhesive, and was injected with liquid 5-FU with a syringe pump from the other open end before it was sealed. […] The amount of drug release was measured every 24 hours within the 3 months. The quantitative measurement of the amount of drug released was measured with a UV Spectrometer. A calibration curve was performed as the concentration versus absorbance for the drug in buffer (wavelength of absorption, □=266 nm (5-FU) and λ=298 nm (cisplatin and carboplatin) or atomic absorption spectroscopy) which was plotted in a logarithmic scale gave a straight line. […] The absorbance of the drug was noted. […]

O=c1[nH]cc(F)c(=O)[nH]1 [5-FU, fluorouracil]
effect on degradation and drug release rate of polymer hollow fibres: accelerates the degradation and drug release rate
